From US20200404907A1, “METHOD OF REDUCING CROP DAMAGE” (BAYER AKTIENGESELLSCHAFT, priority 2018, published 2020)

Assays:
[1] = system: wheat seeds (winter wheat, TRZAW); test: Method D: safener seed treatment then pre-emergence herbicide plus safener tank mix, visual crop damage; assay type: in vivo
Method: (§1) For the safener seed treatment, sufficient seeds were weighed into screw top glass bottles approximately twice the volume of the seeds.
(§2) The safener (mefenpyr-diethyl, formulated as suspension concentrate (SC)) was weighed out so that the required rates (g a.i./kg seed) would be obtained, dissolved in water (1 ml water per 10 g of seeds), and added to the seeds to produce a slurry.
(§3) The bottles were capped and then placed in an overhead shaker (set at medium speed for up to 1 hour) so that the seeds were evenly coated with the slurry. The bottles were uncapped and the seeds were sown as described above.
(§4) For the seed treatment process, the blind formulation (the SC formulation without the safener mefenpyr-diethyl) was used as seed treatment as described above.

[2] = system: wheat seeds (winter wheat, TRZAW); test: Prior-art method: post-emergence herbicide and tank-mix safener, visual crop damage in greenhouse pots; settings: herbicide 200 g/ha post-emergence (BBCH11); no safener; 14 days after application; mean of at least 3 replicates
[3] = system: wheat seeds (winter wheat, TRZAW); test: Method C: safener seed treatment then post-emergence herbicide plus safener tank mix, visual crop damage; assay type: in vivo
Method: as §1, §2, §3, §4

[4] = system: wheat seeds (winter wheat, TRZAW); test: Method A: safener seed treatment then post-emergence herbicide, visual crop damage in greenhouse pots; assay type: in vivo
Method: as §1, §2, §3, §4

[5] = herbicide 200 g/ha post-emergence (BBCH11), no safener, 14 days after application
[6] = safener seed treatment 0.5 g/kg only, no herbicide

SMILES	% crop damage ([1]; herbicide 50 g/ha pre-emergence, no safener, 14 days after application) [%]	% crop damage [2] [%]	% crop damage [3, 5] [%]	% crop damage [4, 5] [%]	% crop damage ([1]; safener 200 g/ha in tank mix pre-emergence only, no herbicide, 14 days after application) [%]	% crop damage [1, 6] [%]	% crop damage ([3]; safener 200 g/ha in tank mix post-emergence only, no herbicide, 14 days after application) [%]	% crop damage [3, 6] [%]	% crop damage [4, 6] [%]
Cc1ccccc1CO[C@@H]1C[C@@]2(C(C)C)CC[C@]1(C)O2 (racemic) [Herbicide post-em., Cinmethylin]	17	28	28	28	–	–	–	–	–
CCOC(=O)C1=NN(c2ccc(Cl)cc2Cl)C(C)(C(=O)OCC)C1 (stereo not drawn) [Safener seed treatment, ethyl 1-(2,4-dichlorophenyl)-5-(ethoxycarbonyl)-5-methyl-2-pyrazoline-3-carboxylate]	–	–	–	–	5	2	5	0	0
